Patent US9737558B2, “Peyer's patch activator” (priority 2012, dated 2017)

Tests used:
[1] = test system: Plasmodium yoelii NS (chloroquine-resistant strain); assay: Oral administration test of polysaccharide fraction in combination with antimalarial agent in rodent malaria parasite (chloroquine-resistant strain) infection model; format: in vivo, Plasmodium yoelii NS in ICR mice; conditions: 2×10^4 infected erythrocytes; AN 3 mg/kg/day oral four times; SCE-4 600 mg/kg/day oral from 7 days before infection; versus control group (Dunnett's test)
Procedure: A procedure was performed in the same manner as in Example 4, except that the number of P. yoelii NS-infected erythrocytes intravenously injected to the tail vein was changed from 2×10^6 cells to 2×10^4 cells.
SCE-4 and AN were orally administered to ICR mice each day in a dose of 500 μL/mouse using a feeding needle. A dosage of SCE-4 was 600 mg/kg/day, and AN was dissolved in a 10% dimethylsulfoxide (DMSO) aqueous solution containing 0.5% Tween 80 and administered in a dosage of 3 mg/kg/day. The administration of SCE-4 was started 7 days before parasite infection and continued even after the plasmodium infection. The administration of AN was started 2 hours after the parasite infection and continued until Day 3 after the plasmodium infection (four times in total). In addition, SCE-4 was administered 3 hours or more after the administration of AN.
To a control group, water and a 10% DMSO aqueous solution containing 0.5% Tween 80 were orally administered, and to AN3 groups, water and a 10% DMSO aqueous solution of AN containing 0.5% Tween 80 were orally administered, and to SCE-4+AN3 groups, an SCE-4 aqueous solution and a 10% DMSO aqueous solution of AN containing 0.5% Tween 80 were orally administered.
Calculation was performed in the same manner as in Example 3.

[2] = test system: IL-6 production in mouse Peyer's patch cells; assay: IL-6 production induction test in Peyer's patch cell culture (ELISA); format: cell-based, C3H/HeJ mouse; conditions: Example 2, FIG. 4; sample untreated, versus control
Procedure: To a 25 mM acetate buffer (pH 4.5, 1 mg/mL) solution of the α-glucan fraction (1.5 mg) or the heteroglycan fraction (1.5 mg) were added exo-α-L-arabinofuranosidase (20 μL), exo-β-D-(1→3)-galactanase (20 μL), and endo-β-D-(1→4)-galactanase (5 μL), followed by enzyme reaction under conditions of 37° C. for 2 days. The obtained digest was heat-treated for 30 seconds in a boiling water bath to deactivate the enzyme. To a half of this enzyme reaction liquid (shown as “1,3/1,4-galactanase” in FIG. 4) was further added dextranase (0.25 units), followed by incubation for 2 days at 37° C., and subsequently, the enzyme was deactivated under the same conditions as the above to obtain an enzyme reaction liquid (shown as “dextranase” in FIG. 4). These reaction liquids were preserved at −20° C. until use. Preparation and culture of mouse Peyer's patch cells were performed in the same manner as in Test Example 1. An anti-mouse IL-6 primary antibody diluted to 1 μg/mL with a 50 mM carbonate-bicarbonate buffer (pH 9.6) (100 μL/well) was dispensed into an ELISA plate (Immuno-Maxisorp, Nunc) and incubated at 4° C. overnight. […] The developed yellow color was measured using a microplate reader (Multiskan JX, Thermo Electron Corp.) (measurement wavelength; 405 nm, blank wavelength; 492 nm).

Compound | infection rate of erythrocytes (Parasitemia), Day 4 and Day 5 [1] | amount of IL-6 production [2]
C[C@H]1[C@H](OC(=O)CCC(=O)O)O[C@@H]2O[C@@]3(C)CC[C@H]4[C@H](C)CC[C@@H]1[C@@]24OO3 [AN, artesunate] | the infection rate significantly decreased on Day 4 and Day 5 as compared with the control group | 
dextran |  | no change in the amount of IL-6 production was observed
